Reference: patent US20200016062A1, “TERMINALIA FERDINANDIANA LEAF EXTRACT AND PRODUCTS CONTAINING EXTRACT OF TERMINALIA FERDINANDIANA LEAF” (RISING PHOENIX INDUSTRIES PTY LTD, priority 2016, published 2020)

System: C. jeikeium
Experiment: modified disc diffusion assay, C. jeikeium
Format: cell-based, Corynebacterium jeikeium
Settings: 10 μL extract per disc; vancomycin 5 μg disc; aerobic, 37° C., 24 hours
Procedure: Evaluation of antibacterial activity screening of the T. ferdinandiana fruit and leaf extracts was assessed using a modified disc diffusion assay.
100 μL of each individual bacteria (C. jeikeium, B. linens, P. acnes and S. epidermidis) was grown separately in 20 mL of the appropriate broth until an approximate count of 10^8 cells/mL was reached.
A volume of 100 μL of each bacterial suspension was spread onto agar plates and the extracts tested for antibacterial activity using 5 mm sterilised filter paper discs.
C. jeikeium cultures were spread onto nutrient agar plates supplemented with 300 μL Tween 80/L of agar.
Discs were infused with 10 μL of the individual extracts, allowed to dry and placed onto inoculated plates. The plates were left to stand at 4° C. for 2 hours before incubation.
Plates inoculated with B. linens, S. epidermidis or C. jeikeium cultures were incubated aerobically at 37° C. for 24 hours.
The diameters of the inhibition zones were measured to the closest whole millimetre. Each assay was completed in at least triplicate. […]
The ability of T. ferdinandiana leaf and fruit extracts to inhibit the growth of bacterial species under test associated with the production of body and foot odours were assessed. […]

CN[C@H](CC(C)C)C(=O)N[C@H]1C(=O)N[C@@H](CC(N)=O)C(=O)N[C@H]2C(=O)N[C@H]3C(=O)N[C@H](C(=O)N[C@H](C(=O)O)c4cc(O)cc(O)c4-c4cc3ccc4O)[C@H](O)c3ccc(c(Cl)c3)Oc3cc2cc(c3O[C@@H]2O[C@H](CO)[C@@H](O)[C@H](O)[C@H]2O[C@H]2C[C@](C)(N)[C@H](O)[C@H](C)O2)Oc2ccc(cc2Cl)[C@H]1O [vancomycin]
growth inhibitory activity against C. jeikeium (zones of inhibition): good inhibitor
